The source of these data is US7811797B2, “α-isomaltosylglucosaccharide-forming enzyme, process and uses of the same” (Kabushiki Kaisha Hayashibara Seibutsu Kagaku Kenkyujo, priority 2000, dated 2010).

Series [1] deals with Bacteroides vulgatus JCM 5826. The series can be described thus: Assimilation test, Bacteroides vulgatus. In kind it is cell-based. The settings on record: PYF medium with 0.5% saccharide, 37° C., four days, anaerobic.
Series [2] is described as follows: pH stability of cyclotetrasaccharide solution. In kind it is physicochemical. The settings on record: 4% (w/v), 100° C. for 24 hours; for Purity (%) after heating: HPLC. The protocol:
Eight milliliters of each solution was placed in a glass test tube, followed by sealing the test tube and heating the solution at 100° C. for 24 hours. After cooling, each solution was measured for coloration degree and determined for purity on HPLC. The coloration degree was evaluated based on the absorbance in a cell with a 1-cm light pass at a wavelength of 480 nm.

Series [3] has as its system Escherichia coli IFO 3301. The series can be described thus: Assimilation test, Escherichia coli. In kind it is cell-based. The settings on record: PYF medium with 0.5% saccharide, 37° C., four days, anaerobic.
A short description of series [4]: Amino carbonyl reaction with glycine. It is filed as physicochemical. The settings on record: 10% (w/v) with 1% (w/v) glycine, pH 7.0, 100° C. The protocol: Four milliliters of the resulting solution were placed in a glass test tube, sealed, and heated at 100° C. for 30 to 90 min. After allowing to stand for cooling at ambient temperature, each of the resulting solutions was measured for coloration degree to examine on their amino carbonyl reactivity. The coloration degree was evaluated based on the absorbance in a cell with 1-cm light pass at a wavelength of 480 nm.

A further series concerns the target T1, Salivary amylase (Homo sapiens, UniProt P0DUB6).
T1 sequence (P0DUB6 16-511): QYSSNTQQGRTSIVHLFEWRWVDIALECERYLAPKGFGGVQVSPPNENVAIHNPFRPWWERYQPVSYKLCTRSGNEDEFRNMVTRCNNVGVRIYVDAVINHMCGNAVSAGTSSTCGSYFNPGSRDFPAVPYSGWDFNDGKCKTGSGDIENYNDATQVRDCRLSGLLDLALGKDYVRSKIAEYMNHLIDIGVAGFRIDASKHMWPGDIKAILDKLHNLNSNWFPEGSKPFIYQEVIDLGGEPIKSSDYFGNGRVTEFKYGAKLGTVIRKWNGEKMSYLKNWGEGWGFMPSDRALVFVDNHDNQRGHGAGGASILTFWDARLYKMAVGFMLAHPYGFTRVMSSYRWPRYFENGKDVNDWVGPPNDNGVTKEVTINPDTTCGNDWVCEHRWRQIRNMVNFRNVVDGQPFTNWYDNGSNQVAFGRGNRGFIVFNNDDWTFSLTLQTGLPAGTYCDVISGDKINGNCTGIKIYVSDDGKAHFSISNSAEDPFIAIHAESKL

Series [5] concerns α-isomaltosylglucosaccharide-forming enzyme. The series can be described thus: Action on saccharides (substrates), Enzyme of Strain N75. In kind it is biochemical, Bacillus globisporus N75. Details: key: −: it showed no change; +: it showed a slight reduction of the color spot of the substrate and the formation of other reaction product; ++: it showed a high reduction of the color spot of the substrate and the formation of other reaction product; +++: it showed a substantial disappearance of the substrate spot and the formation of other reaction product. The settings on record: two units/g substrate, substrate 2% (w/v), 30° C., pH 6.0, 24 hours, TLC. In outline: (§1)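 Purified enzyme from each strain was added at 2 units/g substrate to each of 24 saccharides at 2% (w/v). Incubation ran 24 h at 30° C, pH 6.0, or pH 8.4 for the A19 enzyme. TLC compared reaction mixtures before and after incubation to show whether each substrate was acted on.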

Series [6] in a line: Digestion test in vitro, synthetic gastric juice.
Series [7] has as its system α-isomaltosylglucosaccharide-forming enzyme. Put plainly: Action on saccharides (substrates), Enzyme of Strain C11. In kind it is biochemical, Bacillus globisporus C11. Also noted: key: −: it showed no change; +: it showed a slight reduction of the color spot of the substrate and the formation of other reaction product; ++: it showed a high reduction of the color spot of the substrate and the formation of other reaction product; +++: it showed a substantial disappearance of the substrate spot and the formation of other reaction product. The settings on record: two units/g substrate, substrate 2% (w/v), 30° C., pH 6.0, 24 hours, TLC. The method, boiled down:
as §1

Turning to `OCC1OC2OCC3O[C@H](O[C@H]4C(O)C(CO)OC(OCC5O[C@H](O[C@@H](C1O)C2O)C(O)C(O)[C@@H]5O)C4O)C(O)C(O)[C@@H]3O` (stereo partly drawn) [Cyclotetrasaccharide, cyclo{→6)-α-D-glucopyranosyl-(1→3)-α-D-glucopyranosyl-(1→6)-α-D-glucopyranosyl-(1→3)-α-D-glucopyransoyl-(1→}], the Assimilability entry in series [1] and in series [3] was “− (judged negative (−) when the post culture had a pH of 6.0 or higher)” in each case. Further, the “Coloration degree (A480 nm)” value in series [2] (pH 2.0 (Acetate buffer)), in series [2] (pH 3.0 (Acetate buffer)), in series [2] (pH 4.0 (Acetate buffer)), in series [2] (pH 5.0 (Acetate buffer)), in series [2] (pH 6.0 (Tris-HCl buffer)) and in series [2] (pH 7.0 (Tris-HCl buffer)) was 0.00 A480 nm in each case. Besides, the “Coloration degree (A480 nm)” value in series [2] (pH 8.0 (Tris-HCl buffer)), in series [2] (pH 9.0 (Ammonium buffer)), in series [2] (pH 10.0 (Ammonium buffer)), in series [4] (heating time 0 min), in series [4] (heating time 30 min) and in series [4] (heating time 60 min) was 0.00 A480 nm in each case. Also, the “Coloration degree (A480 nm)” value in series [4] (heating time 90 min) is 0.00 A480 nm. Further, the “Purity (%) after heating” value in series [2] (pH 2.0 (Acetate buffer)) is 93%; in series [2] (pH 3.0 (Acetate buffer)), 100%; in series [2] (pH 4.0 (Acetate buffer)), 100%; in series [2] (pH 5.0 (Acetate buffer)), 100%; in series [2] (pH 6.0 (Tris-HCl buffer)) it was 100%; in series [2] (pH 7.0 (Tris-HCl buffer)), 100%. The “Purity (%) after heating” value in series [2] (pH 8.0 (Tris-HCl buffer)), in series [2] (pH 9.0 (Ammonium buffer)) and in series [2] (pH 10.0 (Ammonium buffer)) was 100% each time. Besides, at Salivary amylase, the “Decomposition percentage (%) by digestive enzyme” value was 0.0%.
Consider `OC[C@@H](O)[C@@H](O[C@H]1O[C@H](CO)[C@@H](O)[C@H](O)[C@H]1O)[C@H](O)[C@@H](O)CO` [Maltitol, reference compound], for which the “Enzymatic action, Enzyme of Strain N75” value in series [5] is “−”. Besides, in series [6], the “Decomposition percentage (%) by digestive enzyme” value worked out at 0.0%. Also, in series [7], the “Enzymatic action, Enzyme of Strain C11” value was “−”.
